From patent US20250387361A1, “METHODS OF ADMINISTERING GAMMA-HYDROXYBUTYRATE COMPOSITIONS WITH DIVALPROEX SODIUM” (Flamel Ireland Limited, priority 2020, published 2025)
Where two headings read alike, the source gives them in different places.

Tests used:
[1] = cited from earlier work
[2] = cited from earlier work; remark: listed apart in the source
plasma proteins = details: GHB concentrations 3 mcg/mL to 300 mcg/mL; cited from earlier work
[3] = in vivo
Experimental: (§1) The study included a sequential, three period design with a single-dose administration of 6 g FT218 on Day 1 (Period 1), once daily 1250 mg divalproex sodium ER administration from Day 2-11 (Period 2), and FT218 and divalproex sodium ER co-administration on Day 12 (Period 3). All administrations were performed in the morning, 2 hours after the completion of a morning meal.
(§2) To compare the effect of FT218 on DVP, the concentration versus time curves for a 1250 mg dose of DVP administered alone (Day 11) and co-administered with FT218 (Day 12) were plotted together.

[4] = in vivo; remark: listed apart in the source
Experimental: as §1, with “evening,” for “morning,”, “dinner.” for “a morning meal.”
as §2

rat [5] = details: 2-year study; cited from earlier work
mouse = details: 2-year study; cited from earlier work
patients = details: cited from earlier work; for incidence of depression: controlled trial titrated from 4.5 g, placebo 1.7%
[6] = cited from earlier work; remark: listed apart in the source
rats [7] = details: cited from earlier work
pregnant rabbits = details: cited from earlier work
CYP2E1 = CYP2E1 (Homo sapiens, UniProt P05181); details: up to 3 mM (378 mcg/mL); cited from earlier work
CYP1A2 = target: T1, CYP1A2 (Homo sapiens, UniProt P05177); details: up to 3 mM (378 mcg/mL); cited from earlier work
T1 sequence (P05177 1-516): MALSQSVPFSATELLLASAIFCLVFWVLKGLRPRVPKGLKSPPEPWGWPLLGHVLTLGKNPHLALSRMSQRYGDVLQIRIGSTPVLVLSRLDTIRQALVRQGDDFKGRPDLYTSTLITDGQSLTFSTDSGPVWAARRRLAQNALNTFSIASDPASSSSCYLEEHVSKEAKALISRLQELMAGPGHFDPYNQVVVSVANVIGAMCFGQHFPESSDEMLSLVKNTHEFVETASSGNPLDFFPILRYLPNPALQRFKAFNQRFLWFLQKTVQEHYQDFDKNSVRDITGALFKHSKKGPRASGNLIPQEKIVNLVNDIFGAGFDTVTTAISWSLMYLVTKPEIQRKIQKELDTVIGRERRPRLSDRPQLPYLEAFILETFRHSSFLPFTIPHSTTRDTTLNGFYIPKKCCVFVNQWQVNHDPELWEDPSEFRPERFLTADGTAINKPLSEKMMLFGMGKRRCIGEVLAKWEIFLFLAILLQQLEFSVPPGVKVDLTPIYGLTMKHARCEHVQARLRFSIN

mammalian cells = details: in vitro; cited from earlier work
rats [8] = details: cited from earlier work; remark: listed apart in the source
bacterial gene mutation = details: in vitro; cited from earlier work
CYP3A = details: up to 3 mM (378 mcg/mL); cited from earlier work
CYP2C19 = CYP2C19 (Homo sapiens, UniProt P33261); details: up to 3 mM (378 mcg/mL); cited from earlier work
pregnant rats = details: cited from earlier work
[9] = cited from earlier work; for apparent oral clearance: 25 mg/kg oral
male and female rats = details: cited from earlier work
rats [10] = details: cited from earlier work; remark: listed apart in the source
CYP2D6 = CYP2D6 (Homo sapiens, UniProt P10635); details: up to 3 mM (378 mcg/mL); cited from earlier work
rat [11] = details: in vivo; cited from earlier work
CYP2C9 = CYP2C9 (Homo sapiens, UniProt P11712); details: up to 3 mM (378 mcg/mL); cited from earlier work
[12] = 9 g per night, 50 patients with obstructive sleep apnea
[13] = elderly (65 years or older), another population
[14] = of 781 patients with narcolepsy
[15] = younger adults, another population
[16] = 6 g per day as two 3 g doses, ibuprofen 800 mg/dose four times per day

CYP2D6, sequence (P10635 whole entry): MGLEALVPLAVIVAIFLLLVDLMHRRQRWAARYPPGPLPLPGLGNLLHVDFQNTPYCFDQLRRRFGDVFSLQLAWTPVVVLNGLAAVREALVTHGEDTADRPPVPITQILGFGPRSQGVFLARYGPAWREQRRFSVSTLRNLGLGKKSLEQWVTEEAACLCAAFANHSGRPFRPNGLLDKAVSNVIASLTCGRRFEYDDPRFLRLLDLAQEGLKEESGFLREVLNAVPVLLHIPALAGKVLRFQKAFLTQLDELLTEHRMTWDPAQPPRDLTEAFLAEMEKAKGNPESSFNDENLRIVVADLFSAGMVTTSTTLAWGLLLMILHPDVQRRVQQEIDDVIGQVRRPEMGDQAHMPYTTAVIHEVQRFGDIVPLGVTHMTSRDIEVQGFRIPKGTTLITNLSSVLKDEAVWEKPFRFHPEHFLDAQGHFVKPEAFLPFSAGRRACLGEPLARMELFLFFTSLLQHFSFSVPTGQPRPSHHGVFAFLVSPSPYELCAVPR
CYP2C19, sequence (P33261 whole entry): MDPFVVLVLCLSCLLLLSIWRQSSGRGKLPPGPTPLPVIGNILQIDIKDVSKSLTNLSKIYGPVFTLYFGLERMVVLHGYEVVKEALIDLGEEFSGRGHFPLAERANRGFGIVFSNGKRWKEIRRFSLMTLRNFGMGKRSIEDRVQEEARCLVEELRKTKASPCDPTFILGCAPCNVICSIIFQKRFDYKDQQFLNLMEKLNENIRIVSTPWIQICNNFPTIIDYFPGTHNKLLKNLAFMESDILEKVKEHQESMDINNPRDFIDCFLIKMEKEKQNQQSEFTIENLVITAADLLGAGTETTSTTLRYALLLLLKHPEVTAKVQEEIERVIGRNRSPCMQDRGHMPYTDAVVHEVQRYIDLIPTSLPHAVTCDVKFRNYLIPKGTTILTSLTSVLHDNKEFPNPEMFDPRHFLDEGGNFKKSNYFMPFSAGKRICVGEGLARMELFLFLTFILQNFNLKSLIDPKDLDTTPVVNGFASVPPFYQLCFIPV
CYP2C9, sequence (P11712 whole entry): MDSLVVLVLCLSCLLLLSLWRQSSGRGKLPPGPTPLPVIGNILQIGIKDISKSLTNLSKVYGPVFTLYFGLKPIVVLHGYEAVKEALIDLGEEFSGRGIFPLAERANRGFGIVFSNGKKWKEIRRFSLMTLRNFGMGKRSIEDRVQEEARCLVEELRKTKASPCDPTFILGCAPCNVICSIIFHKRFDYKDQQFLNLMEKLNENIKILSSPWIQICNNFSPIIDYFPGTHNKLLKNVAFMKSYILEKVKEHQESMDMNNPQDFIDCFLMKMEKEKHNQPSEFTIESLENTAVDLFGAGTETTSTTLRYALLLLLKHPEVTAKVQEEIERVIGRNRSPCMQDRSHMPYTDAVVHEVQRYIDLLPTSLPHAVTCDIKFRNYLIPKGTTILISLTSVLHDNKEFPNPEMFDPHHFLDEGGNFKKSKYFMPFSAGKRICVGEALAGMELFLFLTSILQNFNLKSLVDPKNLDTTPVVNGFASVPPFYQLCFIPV
CYP2E1, sequence (P05181 whole entry): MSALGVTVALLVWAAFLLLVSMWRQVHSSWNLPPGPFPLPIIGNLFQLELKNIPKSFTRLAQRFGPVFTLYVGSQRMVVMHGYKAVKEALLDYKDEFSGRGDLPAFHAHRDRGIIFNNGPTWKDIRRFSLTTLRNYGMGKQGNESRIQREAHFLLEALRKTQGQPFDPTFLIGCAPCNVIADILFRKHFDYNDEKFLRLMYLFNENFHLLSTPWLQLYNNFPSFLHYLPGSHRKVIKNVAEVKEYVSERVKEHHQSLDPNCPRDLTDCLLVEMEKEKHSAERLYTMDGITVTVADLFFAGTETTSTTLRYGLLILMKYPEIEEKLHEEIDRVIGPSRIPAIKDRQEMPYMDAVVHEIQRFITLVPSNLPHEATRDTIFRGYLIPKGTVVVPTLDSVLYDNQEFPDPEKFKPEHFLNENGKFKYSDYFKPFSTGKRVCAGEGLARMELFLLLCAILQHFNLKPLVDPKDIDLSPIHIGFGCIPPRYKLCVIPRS

O=C(O)CCCO [GHB, gamma-hydroxybutyrate]
excretion in human milk ([1]; after oral administration of sodium oxybate): excreted in human milk | apparent volume of distribution ([1]; in vivo): 0.19 to 0.384 L/kg | elimination half-life ([1]; in vivo): 30 to 60 min | fecal excretion ([1]; in vivo): negligible | placental transfer ([1]; intravenous administration to mothers): rapid | unchanged drug in human urine ([1]; within 6 to 8 hours after dosing): less than 5% | change in pharmacokinetics of GHB on alteration of gastric pH with omeprazole ([2]; in vivo): no significant change | bound to plasma proteins (plasma proteins): less than 1%

CCCC(CCC)C(=O)O [divalproex sodium ER, divalproex sodium]
90% CIs of ratio of Cmax and AUC0-24 of valproic acid vs bioequivalence range (80.00%-125.00%) [3]: contained within the standard bioequivalence range | decrease of valproic acid Cmax with FT218 ([4]; human): approximately 5% | valproic acid AUC0-24 T/R ratio [90% CI], Day 12 (with FT218) vs Day 11 (without) ([4]; human): 97.28 [94.59-100.04] | valproic acid Cmax T/R ratio [90% CI], Day 12 (with FT218) vs Day 11 (without) ([4]; human): 94.82 [91.03-98.76] | 90% CIs of ratio of Cmax and AUC0-24 of valproic acid vs bioequivalence range (80.00%-125.00%) [4]: contained within the standard bioequivalence range | tmax for valproic acid, with vs without FT218 [4]: comparable

O=C1CCCO1 [gamma-butyrolactone]
carcinogenic activity (rat [5]): no clear evidence of carcinogenic activity | carcinogenic activity (mouse): no clear evidence of carcinogenic activity

O=C([O-])CCCO.[Na+] [immediate-release sodium oxybate, sodium 4-hydroxybutyrate]
incidence of depression (patients; 4.5 g per night): 1.5% | incidence of depression (patients; 6 g per night): 3.2% | patients with clinically significant oxygen desaturation (≤55%) (patients; 9 g per night, 50 patients with obstructive sleep apnea (three patients)): 6% | number of central apneas (patients; [12]): significant increase | severity of sleep-disordered breathing (patients; [12]): did not increase the severity of sleep-disordered breathing | patients experiencing confusion (patients; 9 g per night, controlled fixed-dose trial): 17% | incidence of depression (patients; 9 g per night): 3.6% | clinically significant worsening of respiratory function (patients; 40 patients with baseline apnea/hypopnea index 16 to 67 events per hour, 4.5 g to 9 g per night): None of the 40 patients | profound CNS depression (patients; 128 patients with narcolepsy): two subjects had profound CNS depression | CNS depression at recommended doses (patients; adult patients, clinical trials): obtundation and clinically significant respiratory depression occurred | sleepwalking with potential injury or significant injury (patients; clinical trial in patients with narcolepsy): Five instances | events of depression (patients; controlled trial, fixed doses 3 g, 6 g or 9 g per night, at the 3 g per night dose): a single event of depression | dose-related changes in oxygen saturation (patients; doses up to 9 g per night, 21 patients with narcolepsy): no dose-related changes in oxygen saturation | discontinuations of treatment due to adverse reactions (patients; [13]): 21% | frequency of headaches (patients; [13]): 39% | patients discontinuing because of depression (patients; four of 781 patients): < 1% | patients discontinuing due to sleepwalking (patients; human, in vivo): < 1% | patients who discontinued because of confusion (patients; human, in vivo): Less than 1% | patients reporting adverse reactions of depression (patients; [14]): 7% | patients who experienced confusion (patients; [14]): 3% | patients reporting sleepwalking (patients; of 781 patients with narcolepsy, controlled and long-term open-label studies): 6% | patients in whom anxiety occurred (patients; of 874 patients, another population): 5.8% | suicides and attempted suicides (patients; patients with narcolepsy (n=781)): two suicides and two attempted suicides | significant worsening of apnea/hypopnea index (patients; patients with preexisting moderate-to-severe sleep apnea): One of four patients | events of confusion (patients; trial titrated from 4.5 g per night, at the 9 g per night dose): a single event of confusion | discontinuations of treatment due to adverse reactions (patients; [15]): 19% | frequency of headaches (patients; [15]): 19% | systemic exposure to GHB on co-administration with diclofenac ([2]; 6 g per day as two 3 g doses four hours apart, diclofenac 50 mg/dose twice per day): no significant changes | effect of co-administration on pharmacokinetics of diclofenac ([2]; 6 g per day as two 3 g doses, diclofenac 50 mg/dose twice per day): did not appear to affect | effect of co-administration on pharmacokinetics of ibuprofen [2, 16]: did not affect | systemic exposure to GHB (plasma Cmax and AUC) on co-administration with ibuprofen [2, 16]: comparable systemic exposure | pharmacokinetic interactions with protriptyline hydrochloride, zolpidem tartrate, and modafinil ([2]; healthy adults): no pharmacokinetic interactions | pharmacokinetic or pharmacodynamic interactions with duloxetine HCl ([2]; healthy adults): no pharmacokinetic or clinically significant pharmacodynamic interactions | pharmacokinetic interactions with the alcohol dehydrogenase inhibitor fomepizole ([2]; in vivo): no pharmacokinetic interactions | pharmacokinetic characteristics of GHB in younger (48 to 64 years) vs older (65 to 75 years) adults ([6]; n=20, another studied population): consistent

O=C([O-])CCCO.[Na+] [sodium oxybate, sodium 4-hydroxybutyrate]
pre- and postnatal findings (rats [7]; oral 150, 350, or 1,000 mg/kg/day, at the highest dose tested): increased stillbirths and decreased offspring postnatal viability and body weight gain | no-effect dose for pre- and postnatal developmental toxicity relative to MRHD (mg/m^2 basis) (rats [7]; rat, in vivo): less than the MRHD | highest dose tested relative to MRHD of 9 g per night (mg/m^2 basis) (pregnant rabbits; 1,200 mg/kg/day): ~3 times | developmental toxicity (pregnant rabbits; oral 300, 600, or 1,200 mg/kg/day throughout organogenesis): no clear evidence of developmental toxicity | inhibition of CYP2E1 activity (CYP2E1): does not significantly inhibit | inhibition of CYP1A2 activity (CYP1A2): does not significantly inhibit | chromosomal aberration (mammalian cells): negative | growth and maturation findings (rats [8]; at the highest dose tested (900 mg/kg/day)): Reduced body weight gain in males and females and delayed sexual maturation in males | mortality (rats [8]; oral 0, 100, 300, or 900 mg/kg/day, postnatal days 21 through 90): mortality was observed at the two highest doses tested | bacterial gene mutation (bacterial gene mutation): negative | inhibition of CYP3A activity (CYP3A): does not significantly inhibit | inhibition of CYP2C19 activity (CYP2C19): does not significantly inhibit | highest dose tested relative to MRHD of 9 g per night (mg/m^2 basis) (pregnant rats; 1,000 mg/kg/day): approximately 1 times | developmental toxicity (pregnant rats; oral 150, 350, or 1,000 mg/kg/day throughout organogenesis): no clear evidence of developmental toxicity | apparent oral clearance ([9]; Child's Class A cirrhotic patients): 4.5 mL/min/kg | apparent oral clearance ([9]; Child's Class C cirrhotic patients): 4.1 mL/min/kg | mean t1/2 ([9]; Class C patients): 59 min | apparent oral clearance ([9]; healthy adults): 9.1 mL/min/kg | AUC values in cirrhotic patients vs normal hepatic function ([9]; single oral dose of 25 mg/kg): doubled | highest dose tested relative to MRHD on a mg/m^2 basis (male and female rats; 1,000 mg/kg/day): approximately equal to the MRHD | effects on fertility (male and female rats; oral 150, 350, or 1,000 mg/kg/day prior to and throughout mating, females through early gestation): no adverse effects on fertility | plasma exposure (AUC) at the highest dose tested relative to humans at MRHD of 9 g per night (rats [10]; 1,000 mg/kg/day): 2 times | tumors (rats [10]; oral doses up to 1,000 mg/kg/day for 83 (males) or 104 (females) weeks): no increase in tumors | inhibition of CYP2D6 activity (CYP2D6): does not significantly inhibit | micronucleus (rat [11]): negative | inhibition of CYP2C9 activity (CYP2C9): does not significantly inhibit | gender differences in pharmacokinetics of GHB ([6]; 18 female and 18 male healthy adults, 4.5 g oral dose): no gender differences were detected
